Test results reported in patent publication US20260053834A1, “COVALENT MODIFIERS OF AKT1 AND USES THEREOF” (Terremoto Biosciences, Inc., priority 2023, published 2026).
Like-named read-outs stand apart in the source and are kept apart here.

Key:
[1] = target: T1, AKT1 E17K (Homo sapiens, UniProt P31749, E17K); assay: Live cell target engagement by NanoBRET competitive probe displacement, AKT1 E17K; assay type: binding; conditions: transfected HEK293 cells, 2 h at 37° C., read-out: AKT1 E17K IC50: GeoMean IC50
T1 construct: expressed in transfected cells; host or cells: HEK293

[2] = target: T2, AKT2 (Homo sapiens, UniProt P31751); assay: Live cell target engagement by NanoBRET competitive probe displacement, AKT2; assay type: binding; conditions: transfected HEK293 cells, 2 h at 37° C., read-out: AKT2 IC50: GeoMean IC50
T2 construct: expressed in transfected cells; host or cells: HEK293

[3] = target: T3, AKT1 WT (Homo sapiens, UniProt P31749); assay: Live cell target engagement by NanoBRET competitive probe displacement, AKT1 WT; assay type: binding; conditions: transfected HEK293 cells, 2 h at 37° C., read-out: AKT1 WT IC50: GeoMean IC50
T3 construct: expressed in transfected cells; host or cells: HEK293

[4] = system: LAPC4 prostate cancer cells, which express the AKT1 E17K allele; assay: Antiproliferative effects in LAPC4 cells (CellTiter Glo, 72 h); assay type: cell-based; conditions: read-out: LAPC4 proliferation IC50: GeoMean IC50
In short: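 Cells grown in IMDM with 12% FBS, seeded at 1,000 cells/well and treated with compound dilutions in DMSO for 72 h. Intracellular ATP read by luminescence. IC50 from a log(inhibitor) vs. response Hill fit.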

T1 sequence (P31749 whole entry E17K): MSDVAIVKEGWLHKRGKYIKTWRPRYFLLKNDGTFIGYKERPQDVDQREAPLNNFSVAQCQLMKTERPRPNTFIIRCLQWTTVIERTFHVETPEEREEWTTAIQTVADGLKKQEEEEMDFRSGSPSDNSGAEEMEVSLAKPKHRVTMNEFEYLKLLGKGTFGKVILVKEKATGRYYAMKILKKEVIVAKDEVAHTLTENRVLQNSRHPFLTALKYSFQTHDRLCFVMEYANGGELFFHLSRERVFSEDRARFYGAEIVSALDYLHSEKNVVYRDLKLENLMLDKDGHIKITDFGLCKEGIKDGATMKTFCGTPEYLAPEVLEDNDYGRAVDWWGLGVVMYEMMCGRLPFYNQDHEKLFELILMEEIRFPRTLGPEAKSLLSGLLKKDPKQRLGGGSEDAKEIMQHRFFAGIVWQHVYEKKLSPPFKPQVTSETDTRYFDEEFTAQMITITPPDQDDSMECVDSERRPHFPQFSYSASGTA
T3 sequence (P31749 whole entry): as the sequence (P31749 whole entry E17K) above, with K17E counted along it
T2 sequence (P31751 whole entry): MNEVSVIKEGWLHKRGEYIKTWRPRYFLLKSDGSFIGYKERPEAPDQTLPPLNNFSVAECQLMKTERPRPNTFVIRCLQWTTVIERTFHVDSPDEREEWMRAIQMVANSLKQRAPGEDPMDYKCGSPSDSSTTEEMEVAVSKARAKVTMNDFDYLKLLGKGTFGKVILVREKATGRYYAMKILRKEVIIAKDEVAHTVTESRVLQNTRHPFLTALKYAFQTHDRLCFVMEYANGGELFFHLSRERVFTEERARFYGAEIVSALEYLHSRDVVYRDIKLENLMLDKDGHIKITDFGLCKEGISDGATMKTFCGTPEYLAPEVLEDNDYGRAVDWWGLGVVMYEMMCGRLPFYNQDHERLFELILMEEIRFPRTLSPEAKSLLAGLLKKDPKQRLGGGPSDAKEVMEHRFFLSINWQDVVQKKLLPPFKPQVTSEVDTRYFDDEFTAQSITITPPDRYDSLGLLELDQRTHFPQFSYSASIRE

Compound	IC50 [1]	IC50 [2]	IC50 [3]	IC50 ([4]; Homo sapiens, LAPC4, 72 h)	IC50 [4]
C#Cc1cc(-n2cccn2)nc2c1nc(-c1cccnc1N)n2-c1ccc2c(c1)CC[C@@H]2NC(=O)c1ccc(O)c(C=O)c1 [Example 201, N-[(1S)-5-[2-(2-aminopyridin-3-yl)-7-ethynyl-5-(pyrazol-1-yl)imidazo[4,5-b]pyridin-3-yl]-2,3-dihydro-1H-inden-1-yl]-3-formyl-4-hydroxybenzamide]	0.01 to 0.1 µM	0.1 to 2 µM	0.1 to 2 µM	0.1 to 2 µM	–
Nc1ncccc1-c1nc2ccc(F)nc2n1-c1ccc2c(c1)CC[C@@H]2NC(=O)c1ccc(O)c(C=O)c1 [Example 48, N-[(1S)-5-[2-(2-aminopyridin-3-yl)-5-fluoroimidazo[4,5-b]pyridin-3-yl]-2,3-dihydro-1H-inden-1-yl]-3-formyl-4-hydroxybenzamide]	0.01 to 0.1 µM	≥ 2 µM	0.1 to 2 µM	0.1 to 2 µM	–
Nc1ncccc1-c1nc2ccc(-c3nccs3)nc2n1-c1ccc2c(c1)CC[C@@H]2NC(=O)c1cc(C=O)c(O)cc1F [Example 144, N-[(1S)-5-[2-(2-aminopyridin-3-yl)-5-(1,3-thiazol-2-yl)imidazo[4,5-b]pyridin-3-yl]-2,3-dihydro-1H-inden-1-yl]-2-fluoro-5-formyl-4-hydroxybenzamide]	0.01 to 0.1 µM	0.01 to 0.1 µM	0.01 to 0.1 µM	0.01 to 0.1 µM	–
Cc1cc(-n2nccn2)nc2c1nc(-c1cccnc1N)n2-c1ccc2c(c1)CC[C@@H]2NC(=O)c1cc(C=O)c(O)c(F)c1F [Example 227, N-[(1S)-5-[2-(2-aminopyridin-3-yl)-7-methyl-5-(1,2,3-triazol-2-yl)imidazo[4,5-b]pyridin-3-yl]-2,3-dihydro-1H-inden-1-yl]-2,3-difluoro-5-formyl-4-hydroxybenzamide]	0.01 to 0.1 µM	0.1 to 2 µM	0.01 to 0.1 µM	0.01 to 0.1 µM	–
Nc1ncccc1-c1nc2ccc(-c3cn[nH]c3)nc2n1-c1ccc2c(c1)CC[C@@H]2NC(=O)c1ccc(O)c(C=O)c1 [Example 67, N-[(1S)-5-[2-(2-aminopyridin-3-yl)-5-(1H-pyrazol-4-yl)imidazo[4,5-b]pyridin-3-yl]-2,3-dihydro-1H-inden-1-yl]-3-formyl-4-hydroxybenzamide]	0.1 to 2 µM	0.1 to 2 µM	0.1 to 2 µM	0.1 to 2 µM	–
Cn1ncc(-c2ccc3nc(-c4cccnc4N)n(-c4ccc5c(c4)CC[C@@H]5NC(=O)c4ccc(O)c(C=O)c4)c3n2)n1 [Example 120, N-[(1S)-5-[2-(2-aminopyridin-3-yl)-5-(2-methyl-1,2,3-triazol-4-yl)imidazo[4,5-b]pyridin-3-yl]-2,3-dihydro-1H-inden-1-yl]-3-formyl-4-hydroxybenzamide]	< 0.01 µM	0.1 to 2 µM	0.01 to 0.1 µM	0.01 to 0.1 µM	–
Nc1ncccc1-c1nc2ccc(-n3cccn3)nc2n1-c1ccc2c(c1)CC[C@@H]2NC(=O)c1cc(C=O)c(O)c(OC(F)F)c1 [Example 168, (S)—N-(5-(2-(2-aminopyridin-3-yl)-5-(1H-pyrazol-1-yl)-3H-imidazo[4,5-b]pyridin-3-yl)-2,3-dihydro-1H-inden-1-yl)-3-(difluoromethoxy)-5-formyl-4-hydroxybenzamide]	0.01 to 0.1 µM	0.1 to 2 µM	0.01 to 0.1 µM	0.1 to 2 µM	–
C#Cc1cc(O)c(C=O)cc1C(=O)N[C@H]1CCc2cc(-n3c(-c4cccnc4N)nc4ccc(-n5cccn5)nc43)ccc21 [Example 145, N-[(1S)-5-[2-(2-aminopyridin-3-yl)-5-(pyrazol-1-yl)imidazo[4,5-b]pyridin-3-yl]-2,3-dihydro-1H-inden-1-yl]-2-ethynyl-5-formyl-4-hydroxybenzamide]	0.01 to 0.1 µM	0.1 to 2 µM	0.01 to 0.1 µM	0.1 to 2 µM	–
Nc1ncccc1-c1nc2ccc(-c3ccccc3)nc2n1-c1ccc2c(c1)CCC2C(=O)NCc1ccc(C=O)c(O)c1 (centres unmarked) [Example 10, 5-(2-(2-aminopyridin-3-yl)-5-phenyl-3H-imidazo[4,5-b]pyridin-3-yl)-N-(4-formyl-3-hydroxybenzyl)-2,3-dihydro-1H-indene-1-carboxamide]	< 0.01 µM	0.1 to 2 µM	0.01 to 0.1 µM	0.01 to 0.1 µM	–
Nc1ncccc1-c1nc2ccc(-n3cccn3)nc2n1-c1ccc2c(c1)CC[C@@H]2NC(=O)c1cc(F)c(O)c(C=O)c1 [Example 81, N-[(1S)-5-[2-(2-aminopyridin-3-yl)-5-(pyrazol-1-yl)imidazo[4,5-b]pyridin-3-yl]-2,3-dihydro-1H-inden-1-yl]-3-fluoro-5-formyl-4-hydroxybenzamide]	0.01 to 0.1 µM	0.1 to 2 µM	0.01 to 0.1 µM	0.1 to 2 µM	–
Nc1ncccc1-c1nc2ccc(-n3ccc(C(F)F)n3)nc2n1-c1ccc2c(c1)CC[C@@H]2NC(=O)c1ccc(O)c(C=O)c1 [Example 116, (S)—N-(5-(2-(2-aminopyridin-3-yl)-5-(3-(difluoromethyl)-1H-pyrazol-1-yl)-3H-imidazo[4,5-b]pyridin-3-yl)-2,3-dihydro-1H-inden-1-yl)-3-formyl-4-hydroxybenzamide]	0.01 to 0.1 µM	0.1 to 2 µM	0.01 to 0.1 µM	0.1 to 2 µM	–
COc1cc(C(=O)N[C@H]2CCc3cc(-n4c(-c5cccnc5N)nc5ccc(-n6cccn6)nc54)ccc32)cc(C=O)c1O [Example 182, N-[(1S)-5-[2-(2-aminopyridin-3-yl)-5-(pyrazol-1-yl)imidazo[4,5-b]pyridin-3-yl]-2,3-dihydro-1H-inden-1-yl]-3-formyl-4-hydroxy-5-methoxybenzamide]	0.01 to 0.1 µM	0.1 to 2 µM	0.01 to 0.1 µM	0.1 to 2 µM	–
Nc1ncccc1-c1nc2ccc(-c3ncc[nH]3)nc2n1-c1ccc2c(c1)CC[C@@H]2NC(=O)c1ccc(O)c(C=O)c1 [Example 194, N-[(1S)-5-[2-(2-aminopyridin-3-yl)-5-(1H-imidazol-2-yl)imidazo[4,5-b]pyridin-3-yl]-2,3-dihydro-1H-inden-1-yl]-3-formyl-4-hydroxybenzamide]	0.01 to 0.1 µM	0.1 to 2 µM	0.1 to 2 µM	0.1 to 2 µM	–
Nc1ncccc1-c1nc2ccc(-n3cccn3)nc2n1-c1ccc2c(c1)CC[C@@H]2NC(=O)c1cc(C=O)c(O)c(Cl)c1F [Example 123, (S)—N-(5-(2-(2-aminopyridin-3-yl)-5-(1H-pyrazol-1-yl)-3H-imidazo[4,5-b]pyridin-3-yl)-2,3-dihydro-1H-inden-1-yl)-3-chloro-2-fluoro-5-formyl-4-hydroxybenzamide]	< 0.01 µM	0.01 to 0.1 µM	0.01 to 0.1 µM	0.01 to 0.1 µM	–
CSc1ccn(-c2ccc3nc(-c4cccnc4N)n(-c4ccc5c(c4)CC[C@@H]5NC(=O)c4ccc(O)c(C=O)c4)c3n2)n1 [Example 124, N-[(1S)-5-[2-(2-aminopyridin-3-yl)-5-[3-(methylsulfanyl)pyrazol-1-yl]imidazo[4,5-b]pyridin-3-yl]-2,3-dihydro-1H-inden-1-yl]-3-formyl-4-hydroxybenzamide]	0.01 to 0.1 µM	0.1 to 2 µM	0.01 to 0.1 µM	0.01 to 0.1 µM	–
Cc1cc(-n2cccn2)nc2c1nc(-c1cccnc1N)n2-c1ccc2c(c1)CC[C@@H]2n1cnc2cc(O)c(C=O)cc2c1=O [Example 220, (S)-3-(5-(2-(2-aminopyridin-3-yl)-7-methyl-5-(1H-pyrazol-1-yl)-3H-imidazo[4,5-b]pyridin-3-yl)-2,3-dihydro-1H-inden-1-yl)-7-hydroxy-4-oxo-3,4-dihydroquinazoline-6-carbaldehyde]	0.1 to 2 µM	0.1 to 2 µM	0.1 to 2 µM	0.1 to 2 µM	–
Nc1ncccc1-c1nc2ccc(-n3cccn3)nc2n1-c1ccc2c(c1)CC(F)[C@@H]2NC(=O)c1ccc(O)c(C=O)c1 (single isomer, unassigned) [Example 257, N-[(1R,2S*)-5-[2-(2-aminopyridin-3-yl)-5-(pyrazol-1-yl)imidazo[4,5-b]pyridin-3-yl]-2-fluoro-2,3-dihydro-1H-inden-1-yl]-3-formyl-4-hydroxybenzamide]	0.01 to 0.1 µM	0.1 to 2 µM	0.01 to 0.1 µM	–	0.1 to 2 µM
Nc1ncccc1-c1nc2ccc(-n3cccn3)nc2n1-c1ccc2c(c1)CC[C@@H]2NC(=O)c1cc(C=O)c(O)c2ncoc12 [Example 253, N-[(1S)-5-[2-(2-aminopyridin-3-yl)-5-(pyrazol-1-yl)imidazo[4,5-b]pyridin-3-yl]-2,3-dihydro-1H-inden-1-yl]-5-formyl-4-hydroxy-1,3-benzoxazole-7-carboxamide]	0.1 to 2 µM	0.1 to 2 µM	0.1 to 2 µM	0.1 to 2 µM	–
Nc1ncccc1-c1nc2ccc(OC3CC3)nc2n1-c1ccc2c(c1)CC[C@@H]2NC(=O)c1ccc(O)c(C=O)c1 [Example 32, N-[(1S)-5-[2-(2-aminopyridin-3-yl)-5-cyclopropoxyimidazo[4,5-b]pyridin-3-yl]-2,3-dihydro-1H-inden-1-yl]-3-formyl-4-hydroxybenzamide]	0.01 to 0.1 µM	≥ 2 µM	0.1 to 2 µM	0.1 to 2 µM	–
COc1cncc(-c2ccc3nc(-c4cccnc4N)n(-c4ccc5c(c4)CC[C@@H]5NC(=O)c4ccc(O)c(C=O)c4)c3n2)n1 [Example 80, N-[(1S)-5-[2-(2-aminopyridin-3-yl)-5-(6-methoxypyrazin-2-yl)imidazo[4,5-b]pyridin-3-yl]-2,3-dihydro-1H-inden-1-yl]-3-formyl-4-hydroxybenzamide]	0.01 to 0.1 µM	0.1 to 2 µM	0.01 to 0.1 µM	0.1 to 2 µM	–
